In article PMC8698721, “Exploration of the Structure–Function Relationships of a Novel Frog Skin Secretion-Derived Bioactive Peptide, t-DPH1, through Use of Rational Design, Cationicity Enhancement and In Vitro Studies” (Antibiotics, 2021):
Converted amounts (≈) assume the structure as drawn. Where two headings read alike, the source gives them in different places. Where a SMILES comes first, the peptide text is derived from it.

Legend:
S. aureus (ATCC 6538) = assay type: cell-based, Staphylococcus aureus; conditions: ATCC 6538, 24 h
Procedure: (§1) To assess the antimicrobial activity of t-DPH1 and its designed analogues, MIC and MBC assays were conducted. Seven microorganism strains were used in the assay: Gram-positive bacteria S. aureus (ATCC 6538), E. faecalis (NCTC 12697) and MRSA (NCTC 12493); Gram-negative bacteria E. coli (ATCC 8739), P. aeruginosa (ATCC 9027) and K. pneumoniae (ATCC 43816); yeast, C. albicans (ATCC 10231).
(§2) For MIC assay, the microorganisms were initially incubated in Mueller-Hinton broth (MHB) (for bacteria) or yeast extract peptone dextrose broth (YPD-B) (for yeast) overnight and sub-cultured to achieve their respective logarithmic growth phases (5 × 10^5 CFU/mL). Then, 99 μL of each microorganism and 1 μL of the tested peptide solution were incubated in a 96-well plate. The final on-plate peptide concentrations were from 1 to 512 μM. Except for the peptide group, four other groups were set when conducting this experiment, including a negative control group (PBS), a vehicle control group (1% DMSO), a positive control group (bacteria: 20 μg/mL norfloxacin; yeast: amphotericin B) and a blank control group (MHB or YPD-B with no microorganism culture). Thus, the MIC value represents the lowest concentration of peptides at which no visible growth of the microorganism after 24 h incubation. For the MBC assay, 10 μL of the medium from each clear well was inoculated onto a Mueller–Hinton agar (MHA) (for bacteria) or yeast extract peptone dextrose agar (YPD-A) (for yeast) plate and incubated for 24 h for measurement MBC values.

[1] = tested on: NCI-H838 (human non-small cell lung cancer); assay type: cell-based; conditions: 24 h
Procedure: (§3) The MTT assay was conducted to verify the proliferation inhibitory effect of t-DPH1 and its analogues. Human cancer cell lines (NCI-H838 (ATCC® CRL-5844, human non-small cell lung cancer)), (NCI-H157(ATCC® CRL-5802, human non-small cell lung cancer cell line)), (U251MG (ECACC 09063001, human neuronal glioblastoma cancer cell line)), (PC-3 (ATCC® CRL-1435TM, human prostate carcinoma cancer cell line)) and normal human cell lines (HMEC-1(ATCC®-CRL-3243, human microvascular endothelial cell line)) and (HaCaT (ATCC®-PCS-200-011, human keratinocyte cell)) were purchased from the American Type Culture Collection (ATCC, Manassas, VA, USA) and the European Collection of Cell Cultures (ECACC, Sallisbury, UK) for this assay. For the MTT assay, 8000 cells/per well were seeded in the 96-well plate for 24 h. Subsequently, experiment groups were dosed with fresh serum-free medium containing different concentrations of peptides (100 μM to 10 nM) in 3 replicates. Negative control groups and positive control groups were dosed with the fresh serum-free medium containing equal amounts of PBS, and 0.1% (w/v) Triton X-100, respectively. Then the 96-well plate was incubated at 37 °C with 5% CO2 for 24 h. After, ten microliters of MTT solution (5 mg/mL) (Sigma-Aldrich UK Ltd., Gillingham, UK) were added to each well and incubated in a dark environment for two hours. Then, the solution in each well was removed and 100 μL of DMSO were added and then the plate was shaken for 10 min on a shaking incubator before detecting the OD value by use of a Synergy HT plate reader (BioTek, Minneapolis, MN, USA) at λ = 570 nm.

[2] = tested on: HMEC-1 (human microvascular endothelial cell line); assay type: cell-based; conditions: 24 h
Procedure: as §3

[3] = tested on: HaCaT (human keratinocyte cell); assay type: cell-based; conditions: 24 h
Procedure: as §3

[4] = tested on: NCI-H157 (human non-small cell lung cancer cell line); assay type: cell-based; conditions: 24 h
Procedure: as §3

[5] = tested on: PC-3 (human prostate carcinoma cancer cell line); assay type: cell-based; conditions: 24 h
Procedure: as §3

[6] = tested on: U251MG (human neuronal glioblastoma cancer cell line); assay type: cell-based; conditions: 24 h
Procedure: as §3

C. albicans (ATCC 10231) = assay type: cell-based, Candida albicans; conditions: ATCC 10231, 24 h
Procedure: as §1, §2

horse red blood cells = assay type: cell-based
Procedure: The haemolysis assay was performed by mixing 2% (v/v) fresh defibrinated horse blood (TCS Biosciences Ltd., Buckingham, UK) with peptides in different concentrations. Before the test, horse blood was rinsed with PBS three to four times until the supernatant was clear. Next, peptide solutions (from 100 μM to 1 nM) were incubated with the suspension of red blood cells at 37 °C for two hours. The blood cells treated with 1% Triton-X 100 were used as the positive control, and the blood cells treated with PBS were used as the negative control. After incubation, 100 μL of the supernatant from each sample were transferred to a new 96-well plate, and the OD value of each well was measured with a Synergy HT plate reader (BioTek, Minneapolis, MN, USA) with the absorbance set to 570 nm.

[7] = tested on: K. pneumoniae (ATCC 43816); assay type: cell-based, Klebsiella pneumoniae; conditions: ATCC 43816, 24 h
Procedure: as §1, §2

E. coli (ATCC 8739) = assay type: cell-based, Escherichia coli; conditions: ATCC 8739, 24 h
Procedure: as §1, §2

[8] = tested on: P. aeruginosa (ATCC 9027); assay type: cell-based, Pseudomonas aeruginosa; conditions: ATCC 9027, 24 h
Procedure: as §1, §2

[9] = tested on: Enterococcus faecalis (E. faecalis) (NCTC 12697); assay type: cell-based; conditions: NCTC 12697, 24 h
Procedure: as §1, §2

[10] = tested on: Methicillin-resistant Staphylococcus aureus (MRSA) (NCTC 12493); assay type: cell-based; conditions: NCTC 12493, 24 h
Procedure: as §1, §2

MIC (S. aureus (ATCC 6538))	IC50 [1]	IC50 against HMEC-1 [2]	IC50 against HaCaT [3]	IC50 [4]	IC50 [5]	MIC (C. albicans (ATCC 10231))	MIC [7]	MIC (E. coli (ATCC 8739))	MIC [8]	MIC [9]	MIC [10]	Compound	MBC (S. aureus (ATCC 6538))	MBC (C. albicans (ATCC 10231))	MBC [7]	MBC (E. coli (ATCC 8739))	MBC [8]	MBC [9]	MBC [10]	other results
2 µM (≈ 4.22 µg/mL)	1.8 µM	3.897 µM	3.332 µM	1.55 µM	2.6 µM	256 µM (≈ 540 µg/mL)	2 µM (≈ 4.22 µg/mL)	2 µM (≈ 4.22 µg/mL)	4 µM (≈ 8.43 µg/mL)	8 µM (≈ 16.9 µg/mL)	2 µM (≈ 4.22 µg/mL)	CC[C@H](C)[C@H](NC(=O)[C@H](CCCCN)NC(=O)[C@H](CCCCN)NC(=O)[C@H](Cc1c[nH]c2ccccc12)NC(=O)[C@H](CC(C)C)NC(=O)CN)C(=O)N[C@@H](CCCCN)C(=O)N[C@@H](CC(N)=O)C(=O)N[C@H](C(=O)N[C@@H](C)C(=O)N[C@@H](CCCCN)C(=O)N[C@@H](C)C(=O)N[C@@H](C)C(=O)NCC(=O)N[C@@H](CCCCN)C(=O)N[C@@H](C)C(=O)N[C@@H](C)C(=O)N[C@@H](CC(C)C)C(=O)NCC(=O)N[C@@H](C)C(=O)N[C@@H](CC(C)C)C(N)=O)C(C)C [t-DPH1-5K] (H-GLWKKIKNVAKAAGKAALGAL-NH2)	2 µM (≈ 4.22 µg/mL)	512 µM (≈ 1080 µg/mL)	4 µM (≈ 8.43 µg/mL)	4 µM (≈ 8.43 µg/mL)	8 µM (≈ 16.9 µg/mL)	16 µM (≈ 33.7 µg/mL)	4 µM (≈ 8.43 µg/mL)	IC50 [6]: 2.68 µM; haemolysis (horse red blood cells; 10 µM): ~40%; HC50 (horse red blood cells; red cells of horse): 19.39 µM
128 µM (≈ 288 µg/mL)	181 µM	293.2 µM	119.3 µM	427 µM	118 µM	512 µM (≈ 1150 µg/mL)	64 µM (≈ 144 µg/mL)	2 µM (≈ 4.5 µg/mL)	64 µM (≈ 144 µg/mL)	512 µM (≈ 1150 µg/mL)	128 µM (≈ 288 µg/mL)	CC[C@H](C)[C@H](NC(=O)[C@H](CCCCN)NC(=O)[C@H](CCCCN)NC(=O)[C@H](Cc1c[nH]c2ccccc12)NC(=O)[C@H](CC(C)C)NC(=O)[C@@H](N)Cc1c[nH]c2ccccc12)C(=O)N[C@@H](CCCCN)C(=O)N[C@@H](CC(N)=O)C(=O)N[C@H](C(=O)N[C@@H](C)C(=O)N[C@@H](CCCCN)C(=O)N[C@@H](C)C(=O)N[C@@H](C)C(=O)NCC(=O)N[C@@H](CCCCN)C(=O)N[C@@H](C)C(=O)N[C@@H](C)C(=O)N[C@@H](CCCCN)C(=O)NCC(=O)N[C@@H](C)C(=O)N[C@@H](CC(C)C)C(N)=O)C(C)C [t-DPH1-6KW] (H-WLWKKIKNVAKAAGKAAKGAL-NH2)	128 µM (≈ 288 µg/mL)	> 512 µM	64 µM (≈ 144 µg/mL)	4 µM (≈ 9.01 µg/mL)	128 µM (≈ 288 µg/mL)	> 512 µM	256 µM (≈ 576 µg/mL)	HC50 (horse red blood cells): 2094 µM
